Test results reported in patent US8148070B2, “Genetic polymorphisms associated with coronary events and drug response, methods of detection and uses thereof” (Celera Corporation, priority 2007, dated 2012).

Tested on: PROVE-IT patients
Test: PROVE-IT (PROVE IT-TIMI 22) genetic study: high-dose atorvastatin vs standard-dose pravastatin, death or major cardiovascular events by KIF6 719Arg carrier status
Format: in vivo, human
Description: Patients were followed for 18 to 36 months, with an average follow-up of 24 months.
Of the 1,724 patients who met the criteria listed above, 1344 (78.0%) were male. […] This study was approved by institutional review boards of the Brigham and Women's Hospital and all participating centers.
KIF6 genotypes were determined using allele—specific real-time PCR as previously described. Cox proportional hazard models (Wald tests) were used to assess the effect of atorvastatin-treatment on incident CHD in the KIF6 719Arg carriers and noncarriers. Continuous variables tested were age, baseline LDL-C, and baseline HDL-C levels. Categorical variables tested were smoking (current versus non-current), hypertension, and baseline diabetes. All reported p values are two-sided.

## CC(C)c1c(C(=O)Nc2ccccc2)c(-c2ccccc2)c(-c2ccc(F)cc2)n1CC[C@@H](O)C[C@@H](O)CC(=O)O [Atorvastatin, atorvastatin]
ArgArg + ArgTrp (carriers), adjusted for sex, age, smoking, hypertension, diabetes, LDL-C, HDL-C, antibiotic
  HR, Model 1 (CHD, atorvastatin vs pravastatin): 0.56
ArgArg + ArgTrp, 80 mg atorvastatin per day vs 40 mg pravastatin per day (ref)
  HR, Unadjusted (CHD, atorvastatin vs pravastatin): 0.57
ArgArg + ArgTrp, totals 509 (atorvastatin), 502 (pravastatin)
  On-trial CHD: 76 Number of patients
TrpTrp (noncarriers), adjusted
  HR, Model 1 (CHD, atorvastatin vs pravastatin): 0.97
TrpTrp (noncarriers), pravastatin = ref
  HR, Unadjusted (CHD, atorvastatin vs pravastatin): 0.99
TrpTrp, totals 359 (atorvastatin), 352 (pravastatin)
  On-trial CHD: 81 Number of patients
Carriers of the KIF6 719Arg allele, 30 days after randomization, atorvastatin vs pravastatin
  unadjusted hazard ratio at 30 days: 0.18
carriers, high-dose atorvastatin vs standard-dose pravastatin
  reduction of relative risk of coronary events: 44%
noncarriers, at any time point
  benefit of intensive therapy compared with moderate therapy: no significant benefit
